Experimental data: the NIST ThermoML archive (doi:10.1016/j.tca.2017.12.013)
Numbers after ± are expanded uncertainties.

Experiment: molar heat capacity at constant pressure
Conditions: 101.33 kPa, Crystal 2, DSC

[Ag+].[Ag+].[S-2] [silver sulfide]
Conditions	molar heat capacity at constant pressure [J/K/mol]
464.57 K	90.35 ± 3.6
465.57 K	90.28 ± 3.6
466.57 K	90.21 ± 3.6
467.57 K	90.13 ± 3.6
468.57 K	90.06 ± 3.6
469.57 K	89.98 ± 3.6
470.57 K	89.9 ± 3.6
471.57 K	89.82 ± 3.6
472.57 K	89.75 ± 3.5
473.57 K	89.67 ± 3.5
474.57 K	89.59 ± 3.5
475.57 K	89.51 ± 3.5
476.57 K	89.43 ± 3.5
477.57 K	89.35 ± 3.5
478.57 K	89.28 ± 3.5
479.57 K	89.2 ± 3.5
480.57 K	89.12 ± 3.5
481.57 K	89.05 ± 3.5
482.57 K	88.97 ± 3.5
483.57 K	88.9 ± 3.5
484.57 K	88.83 ± 3.5
485.57 K	88.76 ± 3.5
486.57 K	88.69 ± 3.5
487.57 K	88.62 ± 3.5
488.57 K	88.55 ± 3.5
489.57 K	88.48 ± 3.5
490.57 K	88.42 ± 3.5
491.57 K	88.35 ± 3.5
492.57 K	88.29 ± 3.5
493.57 K	88.23 ± 3.5
494.57 K	88.17 ± 3.5
495.57 K	88.11 ± 3.5
496.57 K	88.06 ± 3.5
497.57 K	88 ± 3.5
498.57 K	87.95 ± 3.5
499.57 K	87.9 ± 3.5
500.57 K	87.85 ± 3.5
501.57 K	87.8 ± 3.5
502.57 K	87.76 ± 3.5
503.57 K	87.71 ± 3.5
504.57 K	87.67 ± 3.5
505.57 K	87.62 ± 3.5
506.57 K	87.58 ± 3.5
507.57 K	87.54 ± 3.5
508.57 K	87.54 ± 3.5
509.57 K	87.54 ± 3.5
510.57 K	87.54 ± 3.5
511.57 K	87.57 ± 3.5
512.57 K	87.59 ± 3.5
513.57 K	87.61 ± 3.5
514.57 K	87.61 ± 3.5
515.57 K	87.61 ± 3.5
516.57 K	87.62 ± 3.5
517.57 K	87.62 ± 3.5
518.57 K	87.62 ± 3.5
519.57 K	87.64 ± 3.5
520.57 K	87.64 ± 3.5
521.82 K	87.58 ± 3.5
522.82 K	87.56 ± 3.5
523.82 K	87.54 ± 3.5
524.82 K	87.52 ± 3.5
525.82 K	87.5 ± 3.5
526.82 K	87.48 ± 3.5
527.82 K	87.46 ± 3.5
528.82 K	87.45 ± 3.5
529.82 K	87.43 ± 3.5
530.82 K	87.42 ± 3.5
531.82 K	87.4 ± 3.5
532.82 K	87.39 ± 3.5
533.82 K	87.38 ± 3.5
534.82 K	87.37 ± 3.5
535.82 K	87.36 ± 3.5
536.82 K	87.35 ± 3.5
537.82 K	87.34 ± 3.5
538.82 K	87.33 ± 3.5
539.82 K	87.32 ± 3.5
540.82 K	87.31 ± 3.5
541.82 K	87.3 ± 3.5
542.82 K	87.29 ± 3.5
543.82 K	87.28 ± 3.5
544.82 K	87.27 ± 3.5
545.82 K	87.26 ± 3.5
546.82 K	87.26 ± 3.5
547.82 K	87.25 ± 3.5
548.82 K	87.24 ± 3.5
549.82 K	87.23 ± 3.5
550.82 K	87.22 ± 3.5
551.82 K	87.22 ± 3.5
552.82 K	87.21 ± 3.5
553.82 K	87.2 ± 3.5
554.82 K	87.19 ± 3.5
555.82 K	87.18 ± 3.5
556.82 K	87.17 ± 3.5
557.82 K	87.17 ± 3.5
558.82 K	87.16 ± 3.5
559.82 K	87.15 ± 3.5
560.82 K	87.14 ± 3.5
561.82 K	87.13 ± 3.5
562.82 K	87.12 ± 3.5
563.82 K	87.11 ± 3.5
564.82 K	87.1 ± 3.5
565.82 K	87.09 ± 3.5
566.82 K	87.07 ± 3.5
567.82 K	87.06 ± 3.5
568.82 K	87.05 ± 3.5
569.82 K	87.04 ± 3.5
570.82 K	87.02 ± 3.5
571.82 K	87.01 ± 3.5
572.82 K	87 ± 3.5
573.82 K	86.98 ± 3.5
574.82 K	86.97 ± 3.5
575.82 K	86.95 ± 3.5
576.82 K	86.94 ± 3.5
577.82 K	86.92 ± 3.5
578.82 K	86.91 ± 3.5
579.82 K	86.89 ± 3.5
580.82 K	86.87 ± 3.5
581.82 K	86.85 ± 3.5
582.82 K	86.83 ± 3.5
583.82 K	86.82 ± 3.5
584.82 K	86.8 ± 3.5
585.82 K	86.78 ± 3.5
586.82 K	86.76 ± 3.5
587.82 K	86.74 ± 3.5
588.82 K	86.72 ± 3.5
589.82 K	86.7 ± 3.5
590.82 K	86.67 ± 3.5
591.82 K	86.65 ± 3.5
592.82 K	86.63 ± 3.5
593.82 K	86.61 ± 3.5
594.82 K	86.61 ± 3.5
595.82 K	86.63 ± 3.5
596.82 K	86.62 ± 3.5
597.82 K	86.62 ± 3.5
598.82 K	86.6 ± 3.5
599.82 K	86.6 ± 3.5
600.82 K	86.58 ± 3.5
601.82 K	86.55 ± 3.5
602.82 K	86.53 ± 3.5
603.82 K	86.5 ± 3.5
604.82 K	86.48 ± 3.5
605.82 K	86.45 ± 3.5
606.82 K	86.43 ± 3.5
607.82 K	86.4 ± 3.5
608.82 K	86.38 ± 3.5
609.82 K	86.35 ± 3.5
610.82 K	86.33 ± 3.5
611.82 K	86.3 ± 3.5
612.82 K	86.28 ± 3.4
613.82 K	86.25 ± 3.4
614.82 K	86.23 ± 3.4
615.82 K	86.2 ± 3.4
616.82 K	86.18 ± 3.4
